# Data: patent US20190029989A1, “BOWEL CARE USING IONTOPHORESIS” (priority 2016, published 2019)
# Tests used:
# Format in all cases: in vivo, human
# Persons with SCI [1] = assay: Airway resistance by forced oscillation technique after IV bolus (Example 3); settings: IV bolus 2 mg neostigmine
# Description: (§1) Thirteen (13) persons with SCI (5 quadriplegics, 8 paraplegics) with a mean age of 46 years (range 25-69) and mean duration of injury of 16 years (range 1-31) were treated. None of the subjects had known heart disease and/or history of arrhythmias.
# (§2) On separate days, subjects were given by IV bolus either (i) 2 mg neostigmine alone, (ii) a combination of 2 mg neostigmine and 0.4 mg glycopyrrolate, or (iii) normal saline. Subjects were blinded to the type of infusion being delivered. The effect of these infusions on bowel evacuation was assessed semi-quantitatively on a scale of 0 (no evacuation) to 4+(complete evacuation) using video fluoroscopy after rectal instillation of a barium-oatmeal paste having a consistency similar to that of stool. Blood pressure, heart rate and other vital signs were monitored in each subject. In addition, airway resistances were determined in each subject using the forced oscillation technique (as described, for example, in Goldman, Pulm. Pharmacol. Ther., 14(5):341-350, 2001). Total airway resistance was determined using 5 Hz forced oscillations, and central airway resistance was determined using 20 Hz forced oscillations.
# Persons with SCI [2] = assay: Heart rate and blood pressure monitoring after IV bolus (Example 3); settings: IV bolus 2 mg neostigmine alone or with 0.4 mg glycopyrrolate
# Description: as §1, §2
# Persons with SCI [3] = assay: Bowel evacuation score by video fluoroscopy after IV bolus in thirteen subjects (Example 3); settings: IV bolus 2 mg neostigmine alone or with 0.4 mg glycopyrrolate
# Description: as §1, §2
# This response received a 0 (zero) bowel evacuation score. FIGS. 1B-1E show progressively increasing bowel evacuation responses in different subjects. The responses in FIGS. 1B-1E correspond to bowel evacuation scores of 1+, 2+, 3+, and 4+, respectively.
compound,measurement,setting,value
CN(C)C(=O)Oc1cccc([N+](C)(C)C)c1 [neostigmine],"total airway resistance, increase over baseline",Persons with SCI [1]; 5 Hz forced oscillations,approximately 25.5%
same,"central airway resistance, increase over baseline",Persons with SCI [1]; 20 Hz forced oscillations,approximately 18.4%
same,change in blood pressure,Persons with SCI [2],No change
same,mean lowest heart rate measured,Persons with SCI [2]; p=0.02,about 49 BMP
same,subjects with prompt and complete evacuation,Persons with SCI [3],57%
same,time of evacuation post infusion (mean),Persons with SCI [3],11 min
same,mean bowel evacuation score,"Persons with SCI [3]; scale 0 (no evacuation) to 4+ (complete evacuation), thirteen subjects",about 2.29
